Experimental data reported in patent US20250144067A1, “PERSONALIZED STARVATION THERAPY FOR CANCER” (Faeth Therapeutics, Inc., priority 2021, published 2025).

These substances were tested on NCI-H292 lung cancer cells (assay: FDA drug screening, complete media vs cholesterol-free media without statin (TABLE 1)). Conditions: Complete minus Cholesterol-free; greater than 0 enhanced anti-cancer activity, about 0 neutral, below 0 antagonist.
Assay type: cell-based, human

Question: Which Difference does the source give for Atazanavir (sulfate) here?
Answer: −0.18

Question: Which Difference does the source give for Azatadine (dimaleate) here?
Answer: −0.16

Question: Butoconazole (nitrate) was tested. Which Difference did it give?
Answer: −0.19

Question: Cisatracurium (besylate) was tested. Which Difference did it give?
Answer: −0.15

Question: Which Difference does the source give for Clopidogrel (hydrogen sulfate) here?
Answer: −0.10

Same assay, conditions: Complete minus Cholesterol-free; greater than 0 enhanced anti-cancer activity, about 0 neutral, below 0 antagonists

Question: How did the Difference turn out when Atracurium (besylate) was run?
Answer: −0.49

Question: With Brompheniramine (maleate) as the substance, how does the Difference read?
Answer: −0.54

Question: With Chlorpheniramine (maleate) as the substance, how does the Difference read?
Answer: −0.51

Question: Clemastine (fumarate) was tested. Which Difference did it give?
Answer: −0.61

Same assay, conditions: NCI-H292 cells in cholesterol-free media without statin

Question: Atracurium (besylate) was tested. Which Cholesterol-free did it give?
Answer: 1.419

Question: Which Cholesterol-free does the source give for Brompheniramine (maleate) here?
Answer: 1.443

Question: With Chlorpheniramine (maleate) as the substance, how does the Cholesterol-free read?
Answer: 1.451

Question: For Clemastine (fumarate), which Cholesterol-free is on record?
Answer: 1.716

Same assay, conditions: NCI-H292 cells in complete media

Question: For Atracurium (besylate), which Complete is on record?
Answer: 0.9276

Question: Brompheniramine (maleate) was tested. Which Complete did it give?
Answer: 0.9065

Question: Which Complete does the source give for Chlorpheniramine (maleate) here?
Answer: 0.9428

Same assay, conditions: NCI-H292 cells, FDA drug library screen, cholesterol-free media without statin

Question: How did the Cholesterol-free turn out when Atazanavir (sulfate) was run?
Answer: 1.207

Question: With Azatadine (dimaleate) as the substance, how does the Cholesterol-free read?
Answer: 1.286

Question: For Butoconazole (nitrate), which Cholesterol-free is on record?
Answer: 0.9845

Question: With Cisatracurium (besylate) as the substance, how does the Cholesterol-free read?
Answer: 1.321

Question: How did the Cholesterol-free turn out when Clopidogrel (hydrogen sulfate) was run?
Answer: 1.157

Same assay, conditions: NCI-H292 cells, FDA drug library screen, complete media

Question: For Atazanavir (sulfate), which Complete is on record?
Answer: 1.022

Question: With Azatadine (dimaleate) as the substance, how does the Complete read?
Answer: 1.13

Question: For Butoconazole (nitrate), which Complete is on record?
Answer: 0.7977

Question: For Cisatracurium (besylate), which Complete is on record?
Answer: 1.173

Question: How did the Complete turn out when Clopidogrel (hydrogen sulfate) was run?
Answer: 1.053

Same assay, conditions: NCI-H292 cells, cholesterol-free media without statin

Question: For Atosiban (acetate), which Cholesterol-free is on record?
Answer: 1.199

Question: Bedaquiline (fumarate) was tested. Which Cholesterol-free did it give?
Answer: 1.587

Question: Capreomycin (sulfate) was tested. Which Cholesterol-free did it give?
Answer: 1.728

Same assay, conditions: NCI-H292 cells, cholesterol-free media without statin, FDA drug library screen

Question: Which Cholesterol-free does the source give for Bivalirudin (TFA) here?
Answer: 1.02

Question: How did the Cholesterol-free turn out when Bleomycin (hydrochloride) was run?
Answer: 0.4328

Question: How did the Cholesterol-free turn out when Bretylium (tosylate) was run?
Answer: 0.5154

Question: Camostat (mesylate) was tested. Which Cholesterol-free did it give?
Answer: 0.6104

Question: With Cinepazide (Maleate) as the substance, how does the Cholesterol-free read?
Answer: 0.7192

Same assay, conditions: NCI-H292 cells, complete media

Question: With Atosiban (acetate) as the substance, how does the Complete read?
Answer: 0.8162

Question: With Bedaquiline (fumarate) as the substance, how does the Complete read?
Answer: 1.119

Question: How did the Complete turn out when Bephenium (hydroxynaphthoate) was run?
Answer: 0.7234

Question: Which Complete does the source give for Capreomycin (sulfate) here?
Answer: 1.371

Question: Catechin was tested. Which Complete did it give?
Answer: 0.7264

Same assay, conditions: NCI-H292 cells, complete media, FDA drug library screen

Question: How did the Complete turn out when Bivalirudin (TFA) was run?
Answer: 1.118

Question: Which Complete does the source give for Bleomycin (hydrochloride) here?
Answer: 0.5195

Question: With Bretylium (tosylate) as the substance, how does the Complete read?
Answer: 0.751

Question: For Camostat (mesylate), which Complete is on record?
Answer: 0.9828

Question: Cinepazide (Maleate) was tested. Which Complete did it give?
Answer: 1.265

Same assay, conditions: complete vs cholesterol-free media; >0 enhanced anti-cancer activity, about 0 neutral, <0 antagonist

Question: Which Difference does the source give for Bretylium (tosylate) here?
Answer: 0.24

Question: How did the Difference turn out when Camostat (mesylate) was run?
Answer: 0.37

Same assay, conditions: complete vs cholesterol-free media; […]

Question: Which Difference does the source give for Atosiban (acetate) here?
Answer: −0.38

Question: Which Difference does the source give for Bivalirudin (TFA) here?
Answer: 0.10

Question: For Bleomycin (hydrochloride), which Difference is on record?
Answer: 0.09

Question: Capreomycin (sulfate) was tested. Which Difference did it give?
Answer: −0.36

Question: For Catechin, which Difference is on record?
Answer: −0.38

Question: Which Difference does the source give for Cinepazide (Maleate) here?
Answer: 0.55

Same assay, conditions: complete vs cholesterol-free media; greater than 0 enhanced anti-cancer activity, about 0 neutral, below 0 antagonists

Question: How did the Difference turn out when Bedaquiline (fumarate) was run?
Answer: −0.47

Question: With Bephenium (hydroxynaphthoate) as the substance, how does the Difference read?
Answer: −0.43

Each substance was assayed on NCI-H292 lung cancer cells (assay: FDA drug screening, complete media vs cholesterol-free media with simvastatin (TABLE 2)). Conditions: NCI-H292 cells, FDA drug library screen, cholesterol-free media with simvastatin 0.04 μM.
Assay type: cell-based, human

Question: With Atazanavir (sulfate) as the substance, how does the “Cholesterol-free media + simvastatin (0.04 μM)” value read?
Answer: 1.26

Question: Which “Cholesterol-free media + simvastatin (0.04 μM)” value does the source give for Bleomycin (hydrochloride) here?
Answer: 0.184

Question: With Brompheniramine (maleate) as the substance, how does the “Cholesterol-free media + simvastatin (0.04 μM)” value read?
Answer: 0.8932

Question: Butoconazole (nitrate) was tested. Which “Cholesterol-free media + simvastatin (0.04 μM)” value did it give?
Answer: 0.1838

Question: Cinepazide (Maleate) was tested. Which “Cholesterol-free media + simvastatin (0.04 μM)” value did it give?
Answer: 1.132

Question: With Cisatracurium (besylate) as the substance, how does the “Cholesterol-free media + simvastatin (0.04 μM)” value read?
Answer: 1.09

Same assay, conditions: NCI-H292 cells, FDA drug library screen, complete media

Question: How did the “Complete Media” value turn out when Atazanavir (sulfate) was run?
Answer: 1.128

Question: For Bivalirudin (TFA), which “Complete Media” value is on record?
Answer: 0.9368

Question: How did the “Complete Media” value turn out when Bleomycin (hydrochloride) was run?
Answer: 0.1023

Question: Which “Complete Media” value does the source give for Brompheniramine (maleate) here?
Answer: 1.189

Question: How did the “Complete Media” value turn out when Butoconazole (nitrate) was run?
Answer: 0.9232

Question: For Cinepazide (Maleate), which “Complete Media” value is on record?
Answer: 1.001

Question: Which “Complete Media” value does the source give for Cisatracurium (besylate) here?
Answer: 1.349

Same assay, conditions: NCI-H292 cells, FDA library drug in cholesterol-free media with simvastatin 0.04 μM

Question: For Atosiban (acetate), which “Cholesterol-free media + simvastatin (0.04 μM)” value is on record?
Answer: 1.587

Question: With Camostat (mesylate) as the substance, how does the “Cholesterol-free media + simvastatin (0.04 μM)” value read?
Answer: 1.328

Same assay, conditions: NCI-H292 cells, FDA library drug in complete media

Question: How did the “Complete Media” value turn out when Bretylium (tosylate) was run?
Answer: 0.8163

Same assay, conditions: NCI-H292 cells, cholesterol-free media with simvastatin 0.04 μM; FDA drug library screen (TABLE 2)

Question: Azatadine (dimaleate) was tested. Which “Cholesterol-free media + simvastatin (0.04 μM)” value did it give?
Answer: 1.086

Question: With Catechin as the substance, how does the “Cholesterol-free media + simvastatin (0.04 μM)” value read?
Answer: 1.661

Question: For Chlorpheniramine (maleate), which “Cholesterol-free media + simvastatin (0.04 μM)” value is on record?
Answer: 1.426

Same assay, conditions: NCI-H292 cells, cholesterol-free media with simvastatin 0.04 μM; […]

Question: For Capreomycin (sulfate), which “Cholesterol-free media + simvastatin (0.04 μM)” value is on record?
Answer: 0.9008

Same assay, conditions: NCI-H292 cells, cholesterol-free media with simvastatin 0.04 μM; cell growth value in FDA drug screen

Question: Which “Cholesterol-free media + simvastatin (0.04 μM)” value does the source give for Bedaquiline (fumarate) here?
Answer: 0.9095

Question: Clemastine (fumarate) was tested. Which “Cholesterol-free media + simvastatin (0.04 μM)” value did it give?
Answer: 0.8829

Same assay, conditions: NCI-H292 cells, complete media; FDA drug library screen (TABLE 2)

Question: For Azatadine (dimaleate), which “Complete Media” value is on record?
Answer: 1.047

Question: Chlorpheniramine (maleate) was tested. Which “Complete Media” value did it give?
Answer: 1.414

Same assay, conditions: NCI-H292 cells, complete media; […]

Question: Which “Complete Media” value does the source give for Capreomycin (sulfate) here?
Answer: 0.9756

Same assay, conditions: NCI-H292 cells, complete media; cell growth value in FDA drug screen

Question: Bedaquiline (fumarate) was tested. Which “Complete Media” value did it give?
Answer: 0.9785

Same assay, conditions: NCI-H292 cells, drug in cholesterol-free media with simvastatin 0.04 μM

Question: Which “Cholesterol-free media + simvastatin (0.04 μM)” value does the source give for Atracurium (besylate) here?
Answer: 1.369

Question: Bephenium (hydroxynaphthoate) was tested. Which “Cholesterol-free media + simvastatin (0.04 μM)” value did it give?
Answer: 1.634

Question: Which “Cholesterol-free media + simvastatin (0.04 μM)” value does the source give for Clopidogrel (hydrogen sulfate) here?
Answer: 1.048

Same assay, conditions: NCI-H292 cells, drug in complete media

Question: Bephenium (hydroxynaphthoate) was tested. Which “Complete Media” value did it give?
Answer: 1.472

Question: Which “Complete Media” value does the source give for Clopidogrel (hydrogen sulfate) here?
Answer: 0.8246

Same assay, conditions: complete media minus cholesterol-free media + simvastatin (0.04 μM); >0 enhanced anti-cancer activity, about 0 neutral, <0 antagonist

Question: Which Difference does the source give for Azatadine (dimaleate) here?
Answer: −0.04

Question: Chlorpheniramine (maleate) was tested. Which Difference did it give?
Answer: −0.01

Same assay, conditions: complete media minus cholesterol-free media + simvastatin (0.04 μM); […]

Question: How did the Difference turn out when Catechin was run?
Answer: −0.02

Same assay, conditions: complete media minus cholesterol-free media + simvastatin; >0 enhanced anti-cancer activity, about 0 neutral, <0 antagonist

Question: With Bedaquiline (fumarate) as the substance, how does the Difference read?
Answer: 0.07

Question: How did the Difference turn out when Brompheniramine (maleate) was run?
Answer: 0.30

Question: Butoconazole (nitrate) was tested. Which Difference did it give?
Answer: 0.74

Question: Which Difference does the source give for Cisatracurium (besylate) here?
Answer: 0.26

Question: Which Difference does the source give for Clemastine (fumarate) here?
Answer: 0.12

Same assay, conditions: complete media minus cholesterol-free media + simvastatin; […]

Question: Which Difference does the source give for Capreomycin (sulfate) here?
Answer: 0.07

Same assay, conditions: complete media vs cholesterol-free media + simvastatin (0.04 μM); >0 enhanced anti-cancer activity, about 0 neutral, <0 antagonist

Question: For Atazanavir (sulfate), which Difference is on record?
Answer: −0.13

Question: Atracurium (besylate) was tested. Which Difference did it give?
Answer: −0.26

Question: How did the Difference turn out when Bephenium (hydroxynaphthoate) was run?
Answer: −0.16

Question: Bretylium (tosylate) was tested. Which Difference did it give?
Answer: −0.40

Question: Which Difference does the source give for Camostat (mesylate) here?
Answer: −0.30

Question: For Clopidogrel (hydrogen sulfate), which Difference is on record?
Answer: −0.22

Same assay, conditions: complete media vs cholesterol-free media + simvastatin (0.04 μM); […]

Question: For Atosiban (acetate), which Difference is on record?
Answer: −0.52

Question: Which Difference does the source give for Bivalirudin (TFA) here?
Answer: −0.13

Question: Which Difference does the source give for Bleomycin (hydrochloride) here?
Answer: −0.08

Question: How did the Difference turn out when Cinepazide (Maleate) was run?
Answer: −0.13
